Test results taken from ChEMBL document CHEMBL1146459, “Production of biologically active taxoids by a callus culture of Taxus cuspidata” (2004).

Columns and labels:
SF-295 = experiment: Growth inhibition of human SF295 cells after 48 hrs by SRB assay; assay type: functional; settings: SF-295, 48 h
[1] = Growth inhibition of human RXF631L cells after 48 hrs by SRB assay; assay type: functional; settings: RXF 631, 48 h
NCI-H460 = experiment: Growth inhibition of human NCI-H460 cells after 48 hrs by SRB assay; assay type: functional; settings: NCI-H460, 48 h
[2] = Growth inhibition of human BSY1 cells after 48 hrs by SRB assay; assay type: functional; settings: BSY-1, 48 h
[3] = Growth inhibition of human HBC5 cells after 48 hrs by SRB assay; assay type: functional; settings: HBC5, 48 h
[4] = Reversal of multidrug resistance in human 2780AD cells assessed as [3H]vincristine accumulation at 1 ug/mL after 2 hrs relative to verapamil; assay type: functional, A2780 ADR
OVCAR-8 = experiment: Growth inhibition of human OVCAR8 cells after 48 hrs by SRB assay; assay type: functional; settings: OVCAR-8, 48 h
U-251 = experiment: Growth inhibition of human U251 cells after 48 hrs by SRB assay; assay type: functional; settings: U-251, 48 h
SF-539 = experiment: Growth inhibition of human SF539 cells after 48 hrs by SRB assay; assay type: functional; settings: SF-539, 48 h
MKN-28 = experiment: Growth inhibition of human MKN28 cells after 48 hrs by SRB assay; assay type: functional; settings: MKN-28, 48 h
SF-268 = experiment: Growth inhibition of human SF268 cells after 48 hrs by SRB assay; assay type: functional; settings: SF-268, 48 h
MKN-74 = experiment: Growth inhibition of human MKN74 cells after 48 hrs by SRB assay; assay type: functional; settings: MKN-74, 48 h
[5] = Growth inhibition of human MKN1 cells after 48 hrs by SRB assay; assay type: functional; settings: MKN-1, 48 h
ACHN = experiment: Growth inhibition of human ACHN cells after 48 hrs by SRB assay; assay type: functional
HCT-116 = experiment: Growth inhibition of human HCT116 cells after 48 hrs by SRB assay; assay type: functional; settings: HCT-116, 48 h
[6] = Growth inhibition of human HBC4 cells after 48 hrs by SRB assay; assay type: functional; settings: HBC4, 48 h
OVCAR-3 = experiment: Growth inhibition of human OVCAR-3 cells after 48 hrs by SRB assay; assay type: functional; settings: OVCAR-3, 48 h
MKN-45 = experiment: Growth inhibition of human MKN45 cells after 48 hrs by SRB assay; assay type: functional; settings: MKN-45, 48 h
OVCAR-4 = experiment: Growth inhibition of human OVCAR4 cells after 48 hrs by SRB assay; assay type: functional; settings: OVCAR-4, 48 h
HCT-15 = experiment: Growth inhibition of human HCT15 cells after 48 hrs by SRB assay; assay type: functional; settings: HCT-15, 48 h
MDA-MB-231 = experiment: Growth inhibition of human MDA-MB-231 cells after 48 hrs by SRB assay; assay type: functional; settings: MDA-MB-231, 48 h
NCI-H522 = experiment: Growth inhibition of human NCI-H522 cells after 48 hrs by SRB assay; assay type: functional; settings: NCI-H522, 48 h
[7] = read-out: LC50 (the source's name)
[8] = read-out: pLC50 (the source's name) (converted)

SMILES: C=C1[C@@H](OC(C)=O)CC[C@]2(C)[C@@H]1C[C@@H]1C[C@H](OC(C)=O)C(C)=C([C@@H](O)[C@@H]2OC(=O)/C=C/c2ccccc2)C1(C)C
- GI50 (SF-295; read-out: GI50): 10 µM
- TGI (SF-295; read-out: TGI): 100 µM
- GI50 (SF-295; read-out: pGI50 (converted)): 10.5 µM
- TGI (SF-295; read-out: pTGI (converted)): 100 µM
- GI50 ([1]; read-out: GI50): > 100 µM
- CC50 [1, 7]: 100 µM
- TGI ([1]; read-out: TGI): 100 µM
- GI50 ([1]; read-out: pGI50 (converted)): > 100 µM
- CC50 [1, 8]: 100 µM
- TGI ([1]; read-out: pTGI (converted)): 100 µM
- GI50 (NCI-H460; read-out: GI50): 44 µM
- TGI (NCI-H460; read-out: TGI): 100 µM
- GI50 (NCI-H460; read-out: pGI50 (converted)): 41.7 µM
- TGI (NCI-H460; read-out: pTGI (converted)): 100 µM
- GI50 ([2]; read-out: GI50): 6.9 µM
- TGI ([2]; read-out: TGI): 82 µM
- GI50 ([2]; read-out: pGI50 (converted)): 6.92 µM
- TGI ([2]; read-out: pTGI (converted)): 87.1 µM
- CC50 [3, 7]: 100 µM
- TGI ([3]; read-out: TGI): 100 µM
- GI50 ([3]; read-out: pGI50 (converted)): > 100 µM
- CC50 [3, 8]: 100 µM
- TGI ([3]; read-out: pTGI (converted)): 100 µM
- Activity [4]: 191%
- GI50 (OVCAR-8; read-out: GI50): > 100 µM
- TGI (OVCAR-8; read-out: TGI): 100 µM
- GI50 (OVCAR-8; read-out: pGI50 (converted)): > 100 µM
- TGI (OVCAR-8; read-out: pTGI (converted)): 100 µM
- GI50 (U-251; read-out: GI50): 71 µM
- CC50 (U-251; [7]): 100 µM
- TGI (U-251; read-out: TGI): 100 µM
- GI50 (U-251; read-out: pGI50 (converted)): 70.8 µM
- CC50 (U-251; [8]): 100 µM
- TGI (U-251; read-out: pTGI (converted)): 100 µM
- GI50 (SF-539; read-out: GI50): > 100 µM
- CC50 (SF-539; [7]): 100 µM
- TGI (SF-539; read-out: TGI): 100 µM
- GI50 (SF-539; read-out: pGI50 (converted)): > 100 µM
- CC50 (SF-539; [8]): 100 µM
- TGI (SF-539; read-out: pTGI (converted)): 100 µM
- GI50 (MKN-28; read-out: GI50): 12 µM
- CC50 (MKN-28; [7]): > 100 µM
- TGI (MKN-28; read-out: TGI): 100 µM
- GI50 (MKN-28; read-out: pGI50 (converted)): 11.7 µM
- CC50 (MKN-28; read-out: pLC50 (converted)): > 100 µM
- TGI (MKN-28; read-out: pTGI (converted)): 100 µM
- GI50 (SF-268; read-out: GI50): 43 µM
- CC50 (SF-268; [7]): 100 µM
- TGI (SF-268; read-out: TGI): 100 µM
- GI50 (SF-268; read-out: pGI50 (converted)): 10.7 µM
- CC50 (SF-268; [8]): 100 µM
- TGI (SF-268; read-out: pTGI (converted)): 100 µM
- GI50 (MKN-74; read-out: GI50): 9.5 µM
- CC50 (MKN-74; [7]): 100 µM
- TGI (MKN-74; read-out: TGI): 100 µM
- GI50 (MKN-74; read-out: pGI50 (converted)): 9.55 µM
- CC50 (MKN-74; [8]): 100 µM
- TGI (MKN-74; read-out: pTGI (converted)): 100 µM
- GI50 ([5]; read-out: GI50): 93 µM
- TGI ([5]; read-out: TGI): 100 µM
- GI50 ([5]; read-out: pGI50 (converted)): 93.3 µM
- TGI ([5]; read-out: pTGI (converted)): 100 µM
- GI50 (ACHN; read-out: GI50): 87 µM
- CC50 (ACHN; [7]): 100 µM
- TGI (ACHN; read-out: TGI): 100 µM
- GI50 (ACHN; read-out: pGI50 (converted)): 89.1 µM
- CC50 (ACHN; [8]): 100 µM
- TGI (ACHN; read-out: pTGI (converted)): 100 µM
- GI50 (HCT-116; read-out: GI50): 5.6 µM
- CC50 (HCT-116; [7]): 100 µM
- TGI (HCT-116; read-out: TGI): 100 µM
- GI50 (HCT-116; read-out: pGI50 (converted)): 5.62 µM
- CC50 (HCT-116; [8]): 100 µM
- TGI (HCT-116; read-out: pTGI (converted)): 100 µM
- CC50 [6, 7]: 100 µM
- TGI ([6]; read-out: TGI): 100 µM
- GI50 ([6]; read-out: pGI50 (converted)): > 100 µM
- CC50 [6, 8]: 100 µM
- TGI ([6]; read-out: pTGI (converted)): 100 µM
- GI50 (OVCAR-3; read-out: GI50): 5 µM
- CC50 (OVCAR-3; [7]): > 100 µM
- TGI (OVCAR-3; read-out: TGI): 100 µM
- GI50 (OVCAR-3; read-out: pGI50 (converted)): 5.01 µM
- CC50 (OVCAR-3; read-out: pLC50 (converted)): > 100 µM
- TGI (OVCAR-3; read-out: pTGI (converted)): 100 µM
- CC50 (MKN-45; [7]): 100 µM
- TGI (MKN-45; read-out: TGI): 100 µM
- GI50 (MKN-45; read-out: pGI50 (converted)): > 100 µM
- CC50 (MKN-45; [8]): 100 µM
- TGI (MKN-45; read-out: pTGI (converted)): 100 µM
- GI50 (OVCAR-4; read-out: GI50): 22 µM
- CC50 (OVCAR-4; [7]): 100 µM
- TGI (OVCAR-4; read-out: TGI): 100 µM
- GI50 (OVCAR-4; read-out: pGI50 (converted)): 22.4 µM
- CC50 (OVCAR-4; [8]): 100 µM
- TGI (OVCAR-4; read-out: pTGI (converted)): 100 µM
- GI50 (HCT-15; read-out: GI50): 29 µM
- CC50 (HCT-15; [7]): > 100 µM
- TGI (HCT-15; read-out: TGI): 100 µM
- GI50 (HCT-15; read-out: pGI50 (converted)): 28.8 µM
- CC50 (HCT-15; read-out: pLC50 (converted)): > 100 µM
- TGI (HCT-15; read-out: pTGI (converted)): 100 µM
- GI50 (MDA-MB-231; read-out: GI50): 16 µM
- TGI (MDA-MB-231; read-out: TGI): 100 µM
- GI50 (MDA-MB-231; read-out: pGI50 (converted)): 16.2 µM
- TGI (MDA-MB-231; read-out: pTGI (converted)): 100 µM
- GI50 (NCI-H522; read-out: GI50): 3.1 µM
- CC50 (NCI-H522; [7]): 100 µM
- TGI (NCI-H522; read-out: TGI): 81 µM
- GI50 (NCI-H522; read-out: pGI50 (converted)): 3.09 µM
- CC50 (NCI-H522; [8]): 100 µM
- TGI (NCI-H522; read-out: pTGI (converted)): 100 µM
